The test deals with T1, Chk1 (Homo sapiens, UniProt O14757).
T1 construct: purchased Upstate Biotechnology
T1 sequence (O14757 1-476): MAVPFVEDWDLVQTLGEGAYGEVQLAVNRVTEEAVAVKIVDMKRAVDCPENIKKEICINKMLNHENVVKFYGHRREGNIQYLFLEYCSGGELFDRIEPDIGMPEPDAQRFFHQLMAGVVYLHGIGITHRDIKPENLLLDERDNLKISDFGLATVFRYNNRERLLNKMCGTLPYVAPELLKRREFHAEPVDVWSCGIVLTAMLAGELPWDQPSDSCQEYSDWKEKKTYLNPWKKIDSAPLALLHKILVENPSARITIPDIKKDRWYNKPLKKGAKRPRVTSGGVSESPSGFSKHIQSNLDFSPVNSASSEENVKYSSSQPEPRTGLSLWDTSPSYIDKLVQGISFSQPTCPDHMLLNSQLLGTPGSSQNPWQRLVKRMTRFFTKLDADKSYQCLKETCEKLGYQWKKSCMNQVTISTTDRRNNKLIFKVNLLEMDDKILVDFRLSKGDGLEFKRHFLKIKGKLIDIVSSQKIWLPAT
The experiment in a line: Chk1 kinase assay: incorporation of γ-33P ATP into immobilized myelin basic protein. In kind it is biochemical. Conditions: read-out: Chk1 IC50. The gist of the method: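 Read-out is scintillation counting of 33P incorporated into plate-bound myelin basic protein. Chk1 runs at 10 nM enzyme with 10 μM ATP, Chk2 at 20 nM with 30 μM ATP, each for 1 hour at room temperature. Duplicate points; IC50 taken as 50% activity reduction, Ki computed from IC50.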

From patent US7704995B2 (Exelixis, Inc., priority 2003, dated 2010) come the findings set out here.

A word on the IC50: it is the concentration at which inhibition is half-maximal. In the case of `CNC(=O)c1nc(-c2cccc(C(=O)NCc3ccc(F)c(F)c3)c2)cnc1N` [Example 288, 3-amino-6-[3-({[(3,4-difluorophenyl)methyl]amino}carbonyl)phenyl]-N-methylpyrazine-2-carboxamide], the IC50 was 50 to 1000 nM. With `CNC(=O)c1nc(-c2cccc(C(=O)NCc3ccccc3F)c2)cnc1N` [Example 289, 3-amino-6-[3-({[(2-fluorophenyl)methyl]amino}carbonyl)phenyl]-N-methylpyrazine-2-carboxamide], the concentration for half-maximal inhibition (IC50) is 50 to 1000 nM. The figure for `CNC(=O)c1nc(-c2cccc(C(=O)NCc3ccc(N4CCN(C)CC4)cc3)c2)cnc1N` [Example 290, 3-amino-N-methyl-6-{3-[({[4-(4-methylpiperazin-1-yl)phenyl]methyl}amino)carbonyl]phenyl}pyrazine-2-carboxamide] is 1000 to 10000 nM; for `CNC(=O)c1nc(-c2ccc(F)c(C(=O)NCc3ccccc3)c2)cnc1N` [Example 291, 3-amino-6-(4-fluoro-3-{[(phenylmethyl)amino]carbonyl}phenyl)-N-methylpyrazine-2-carboxamide] it is 50 to 1000 nM.

With `CNC(=O)c1nc(-c2cccc(C(=O)NCc3c(Cl)cc(Cl)cc3Cl)c2)cnc1N` [Example 292, 3-amino-N-methyl-6-[3-({[(2,4,6-trichlorophenyl)methyl]amino}carbonyl)phenyl]pyrazine-2-carboxamide], the IC50 fell in the range of 50 to 1000 nM. Take `CNC(=O)c1nc(-c2cccc(C(=O)NCc3cccc(Cl)c3C)c2)cnc1N` [Example 293, 3-amino-6-[3-({[(3-chloro-2-methylphenyl)methyl]amino}carbonyl)phenyl]-N-methylpyrazine-2-carboxamide]: the IC50 lay in the range of 50 to 1000 nM. The result for `CNC(=O)c1nc(-c2cccc(C(=O)NCc3cc(OC)ccc3OC)c2)cnc1N` [Example 294, 3-amino-6-{3-[({[2,5-bis(methyloxy)phenyl]methyl}amino)carbonyl]phenyl}-N-methylpyrazine-2-carboxamide] reads 50 to 1000 nM; that for `CNC(=O)c1nc(-c2cccc(C(=O)NCc3ccc(C)c(F)c3)c2)cnc1N` [Example 295, 3-amino-6-[3-({[(3-fluoro-4-methylphenyl)methyl]amino}carbonyl)phenyl]-N-methylpyrazine-2-carboxamide], 50 to 1000 nM; that for `CNC(=O)c1nc(-c2cccc(C(=O)NCc3c(F)ccc(C)c3Cl)c2)cnc1N` [Example 296, 3-amino-6-[3-({[(2-chloro-6-fluoro-3-methylphenyl)methyl]amino}carbonyl)phenyl]-N-methylpyrazine-2-carboxamide], 50 to 1000 nM. The result for `CNC(=O)c1nc(-c2cccc(C(=O)NCc3c(F)ccc(F)c3Cl)c2)cnc1N` [Example 297, 3-amino-6-[3-({[(2-chloro-3,6-difluorophenyl)methyl]amino}carbonyl)phenyl]-N-methylpyrazine-2-carboxamide] reads 50 to 1000 nM; that for `CNC(=O)c1nc(-c2cccc(C(=O)NCc3ccc(C)c(F)c3F)c2)cnc1N` [Example 298, 3-amino-6-[3-({[(2,3-difluoro-4-methylphenyl)methyl]amino}carbonyl)phenyl]-N-methylpyrazine-2-carboxamide], 50 to 1000 nM; that for `CNC(=O)c1nc(-c2cccc(C(=O)NCc3ccc(F)c(C)c3)c2)cnc1N` [Example 299, 3-amino-6-[3-({[(4-fluoro-3-methylphenyl)methyl]amino}carbonyl)phenyl]-N-methylpyrazine-2-carboxamide], 50 to 1000 nM. The figure for `CNC(=O)c1nc(-c2cccc(C(=O)NCc3cccc(Cl)c3F)c2)cnc1N` [Example 300, 3-amino-6-[3-({[(3-chloro-2-fluorophenyl)methyl]amino}carbonyl)phenyl]-N-methylpyrazine-2-carboxamide] is 50 to 1000 nM; for `CNC(=O)c1nc(-c2cccc(C(=O)NCc3c(Cl)ccc(C)c3F)c2)cnc1N` [Example 301, 3-amino-6-[3-({[(6-chloro-2-fluoro-3-methylphenyl)methyl]amino}carbonyl)phenyl]-N-methylpyrazine-2-carboxamide] it is 50 to 1000 nM.
